From patent publication US9902703B2, “Somatostatin modulators and uses thereof” (Crinetics Pharmaceuticals, Inc., priority 2015, dated 2018)

target: T1, human somatostatin receptor subtype 2 (Homo sapiens, UniProt P30874); experiment: cAMP assay (functional assay for SSTR2 agonists); format: cell-based; conditions: CHO cells expressing human SSTR2; intracellular cAMP with forskolin, HTRF; read-out: SSTR2a EC50
T1 construct: expressed in transfected cells; host or cells: CHO (Chinese hamster ovary) cells, G-418 selected
Text: Functional Assay for SSTR2 Agonists
General overview: All five SSTR subtypes are Gi coupled G-protein coupled receptors (GPCRs) that lead to decreases in intracellular cyclic AMP (cAMP) when activated by an agonist. Therefore, measurement of intracellular cAMP levels can be used to assess whether compounds of the invention are agonists of SSTR subtypes (John Kelly, Troy Stevens, W. Joseph Thompson, and Roland Seifert, Current Protocols in Pharmacology, 2005, 2.2.1-2.2). One example of an intracellular cAMP assay is described below.
One day prior to the assay, 40,000 Chinese hamster ovary (CHO) cells expressing the human somatostatin receptor subtype 2 are plated in each well of a 96-well tissue culture plate in DM-MEM growth media (Gibco) with the following additives: 10% fetal bovine serum (Gibco), 100 U/mL penicillin (Gibco), 100 ug/mL streptomycin (Gibco), 10 mM HEPES (Gibco), 1.2 mM sodium hydroxide, 0.5 mg/mL G-418 (Gibco)). The cells are cultured overnight at 37° C., 5% CO2 and 95% humidity. On the day of the assay, the media is aspirated and the cells are washed with 1× Dulbecco's phosphate buffered saline (Gibco). Next, 5 μL of assay buffer (1× Earle's Balanced Salt Solution (Gibco), 5 mM MgCl2, 10 mM HEPES, 0.1% bovine serum albumin, 0.2 mM 3-Isobutyl-1-methylxanthine (IBMX, Biomol Research Labs)) and forskolin is added. Various dilutions of the compounds of the invention are prepared in assay buffer and 5 μL of the dilutions are added to the cultured cells and incubated for 15 minutes at 37° C. […] 10 μL of lysis buffer (HRTF cAMP kit, Cisbio) containing cAMP detection and visualization antibodies are added and the assay is allowed incubate for 1-24 hours at room temperature. The intracellular cAMP concentrations are then measured using a commercially available detection kit (for example, the cAMP HTRF kit, Cisbio). The measured intracellular cAMP concentrations are plotted vs. the concentration of the compounds of the invention and the EC50 of the compounds are calculated using standard methods.

T1 sequence (P30874 whole entry): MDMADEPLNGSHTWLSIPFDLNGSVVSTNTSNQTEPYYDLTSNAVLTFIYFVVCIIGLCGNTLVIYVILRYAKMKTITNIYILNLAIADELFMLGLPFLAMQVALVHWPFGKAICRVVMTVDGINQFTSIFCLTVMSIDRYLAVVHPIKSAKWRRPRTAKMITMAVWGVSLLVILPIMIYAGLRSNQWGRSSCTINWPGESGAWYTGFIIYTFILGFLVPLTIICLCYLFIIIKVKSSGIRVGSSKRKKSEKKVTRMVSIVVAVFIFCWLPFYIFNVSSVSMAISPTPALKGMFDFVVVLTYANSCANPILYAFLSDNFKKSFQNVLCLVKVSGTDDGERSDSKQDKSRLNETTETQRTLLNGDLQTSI

| SMILES | EC50 [nM] |
| --- | --- |
| Cc1cc(C)cc(N2C=Nc3ccc(-c4cccc(O)c4)cc3C2C(=O)N(C)C[C@H](C)N)c1 (stereo partly drawn) [Compound 1-1, N-[(2S)-2-aminopropyl]-3-(3,5-dimethylphenyl)-6-(3-hydroxyphenyl)-N-methyl-3,4-dihydroquinazoline-4-carboxamide] | 100 to 1000 |
| Cc1cc(C)cc(N2C=Nc3ccc(-c4cccc(O)c4)cc3C2C(=O)N(C)CCN)c1 (centres unmarked) [Compound 1-2, N-(2-aminoethyl)-3-(3,5-dimethylphenyl)-6-(3-hydroxyphenyl)-N-methyl-3,4-dihydroquinazoline-4-carboxamide] | 100 to 1000 |
| Cc1cc(C)cc(N2C=Nc3cc(Cl)c(-c4cccc(O)c4)cc3C2C(=O)NCCN)c1 (centres unmarked) [Compound 1-3, N-(2-aminoethyl)-7-chloro-3-(3,5-dimethylphenyl)-6-(3-hydroxyphenyl)-3,4-dihydroquinazoline-4-carboxamide] | 1000 to 10000 |
| CC[C@H](N)CN(C)C(=O)C1c2cc(-c3cc(O)cc(F)c3)c(Cl)cc2N=CN1c1cc(C)cc(C)c1 (stereo partly drawn) [Compound 1-6, N-[(2S)-2-aminobutyl]-7-chloro-3-(3,5-dimethylphenyl)-6-(3-fluoro-5-hydroxyphenyl)-N-methyl-3,4-dihydroquinazoline-4-carboxamide] | < 100 |
| CC[C@H](N)CN(C)C(=O)C1c2cc(-c3cc(C)cc(O)c3)c(Cl)cc2N=CN1c1cc(C)cc(C)c1 (stereo partly drawn) [Compound 1-7, N-[(2S)-2-aminobutyl]-7-chloro-3-(3,5-dimethylphenyl)-6-(3-hydroxy-5-methylphenyl)-N-methyl-3,4-dihydroquinazoline-4-carboxamide] | < 100 |
| CC[C@H](N)CN(C)C(=O)C1c2cc(-c3cc(O)ccc3C)c(Cl)cc2N=CN1c1cc(C)cc(C)c1 (stereo partly drawn) [Compound 1-8, N-[(2S)-2-aminobutyl]-7-chloro-3-(3,5-dimethylphenyl)-6-(5-hydroxy-2-methylphenyl)-N-methyl-3,4-dihydroquinazoline-4-carboxamide] | < 100 |
| CC[C@H](N)CN(C)C(=O)C1c2cc(-c3cc(O)ccc3F)c(C)cc2N=CN1c1cc(C)cc(C)c1 (stereo partly drawn) [Compound 1-10, N-[(2S)-2-aminobutyl]-3-(3,5-dimethylphenyl)-6-(2-fluoro-5-hydroxyphenyl)-N,7-dimethyl-3,4-dihydroquinazoline-4-carboxamide] | < 100 |
| CC[C@H](N)CN(C)C(=O)C1c2cc(-c3cccc(O)c3F)c(C)cc2N=CN1c1cc(C)cc(C)c1 (stereo partly drawn) [Compound 1-11, N-[(2S)-2-aminobutyl]-3-(3,5-dimethylphenyl)-6-(2-fluoro-3-hydroxyphenyl)-N,7-dimethyl-3,4-dihydroquinazoline-4-carboxamide] | < 100 |
| CC[C@H](N)CN(C)C(=O)C1c2cc(-c3cc(O)c(F)cc3F)c(C)cc2N=CN1c1cc(C)cc(C)c1 (stereo partly drawn) [Compound 1-14, N-[(2S)-2-aminobutyl]-6-(2,4-difluoro-5-hydroxyphenyl)-3-(3,5-dimethylphenyl)-N,7-dimethyl-3,4-dihydroquinazoline-4-carboxamide] | 100 to 1000 |
| CC[C@H](N)CN(C)C(=O)C1c2cc(-c3c(F)ccc(O)c3F)c(C)cc2N=CN1c1cc(C)cc(C)c1 (stereo partly drawn) [Compound 1-15, N-[(2S)-2-aminobutyl]-6-(2,6-difluoro-3-hydroxyphenyl)-3-(3,5-dimethylphenyl)-N,7-dimethyl-3,4-dihydroquinazoline-4-carboxamide] | < 100 |
| CC[C@H](N)CN(C)C(=O)C1c2cc(-c3cc(O)ccc3Cl)c(C)cc2N=CN1c1cc(C)cc(C)c1 (stereo partly drawn) [Compound 1-16, N-[(2S)-2-aminobutyl]-6-(2-chloro-5-hydroxyphenyl)-3-(3,5-dimethylphenyl)-N,7-dimethyl-3,4-dihydroquinazoline-4-carboxamide] | < 100 |

Further lines, results first:

| EC50 [nM] | SMILES |
| --- | --- |
| < 100 | Cc1cc(Cl)cc(N2C=Nc3cc(C)c(-c4cc(F)cc(C(N)=O)c4)cc3C2C(=O)N(C)C[C@@H]2CCCN2)c1 (single isomer, unassigned) [Compound 3-1] |
| < 100 | Cc1cc(Cl)cc(N2C=Nc3cc(C)c(-c4cc(F)ccc4O)cc3C2C(=O)N(C)C[C@@H]2CCCN2)c1 (single isomer, unassigned) [Compound 3-2] |
| < 100 | Cc1cc(C)cc(N2C=Nc3cc(Cl)c(-c4cccc(O)c4)cc3C2C(=O)N(C)C[C@H](C)N)c1 (stereo partly drawn) [Compound 1-4, N-[(2S)-2-aminopropyl]-7-chloro-3-(3,5-dimethylphenyl)-6-(3-hydroxyphenyl)-N-methyl-3,4-dihydroquinazoline-4-carboxamide] |
| < 100 | CC[C@H](N)CN(C)C(=O)C1c2cc(-c3cccc(O)c3)c(Cl)cc2N=CN1c1cc(C)cc(C)c1 (stereo partly drawn) [Compound 1-5, N-[(2S)-2-aminobutyl]-7-chloro-3-(3,5-dimethylphenyl)-6-(3-hydroxyphenyl)-N-methyl-3,4-dihydroquinazoline-4-carboxamide] |
| < 100 | CC[C@H](N)CN(C)C(=O)C1c2cc(-c3cccc(O)c3)c(C)cc2N=CN1c1cc(C)cc(C)c1 (stereo partly drawn) [Compound 1-9, N-[(2S)-2-aminobutyl]-3-(3,5-dimethylphenyl)-6-(3-hydroxyphenyl)-N,7-dimethyl-3,4-dihydroquinazoline-4-carboxamide] |
| < 100 | Cc1cc(C)cc(N2C=Nc3cc(C)c(-c4cccc(O)c4)cc3C2C(=O)N(C)C[C@@H]2CCCN2)c1 (stereo partly drawn) [Compound 1-12, 3-(3,5-dimethylphenyl)-6-(3-hydroxyphenyl)-N,7-dimethyl-N-[(2S)-pyrrolidin-2-ylmethyl]-3,4-dihydroquinazoline-4-carboxamide] |
| < 100 | CC[C@H](N)CN(C)C(=O)C1c2cc(-c3cccc(O)c3)c(C)cc2N=CN1c1cc(C)cc(Cl)c1 (stereo partly drawn) [Compound 1-13, N-[(2S)-2-aminobutyl]-3-(3-chloro-5-methylphenyl)-6-(3-hydroxyphenyl)-N,7-dimethyl-3,4-dihydroquinazoline-4-carboxamide] |
| < 100 | Cc1cc(Cl)cc(N2C=Nc3cc(C)c(-c4cccc(O)c4)cc3C2C(=O)N(C)C[C@@H]2CCCN2)c1 (stereo partly drawn) [Compound 1-17, 3-(3-chloro-5-methylphenyl)-6-(3-hydroxyphenyl)-N,7-dimethyl-N-[(2S)-pyrrolidin-2-ylmethyl]-3,4-dihydroquinazoline-4-carboxamide] |
| < 100 | Cc1cc(Cl)cc(N2C=Nc3cc(C)c(-c4cccc(O)c4)cc3C2C(=O)N(C)C[C@H]2CCCN2)c1 (stereo partly drawn) [Compound 1-18, 3-(3-chloro-5-methylphenyl)-6-(3-hydroxyphenyl)-N,7-dimethyl-N-[(2R)-pyrrolidin-2-ylmethyl]-3,4-dihydroquinazoline-4-carboxamide] |
| < 100 | Cc1cc(Cl)cc(N2C=Nc3cc(C)c(-c4cc(O)ccc4F)cc3C2C(=O)N(C)C[C@@H]2CCCN2)c1 (stereo partly drawn) [Compound 1-19, 3-(3-chloro-5-methylphenyl)-6-(2-fluoro-5-hydroxyphenyl)-N,7-dimethyl-N-[(2S)-pyrrolidin-2-ylmethyl]-3,4-dihydroquinazoline-4-carboxamide] |
| < 100 | Cc1cc(Cl)cc(N2C=Nc3cc(C)c(-c4cc(O)ccc4Cl)cc3C2C(=O)N(C)C[C@@H]2CCCN2)c1 (stereo partly drawn) [Compound 1-20, 6-(2-chloro-5-hydroxyphenyl)-3-(3-chloro-5-methylphenyl)-N,7-dimethyl-N-[(2S)-pyrrolidin-2-ylmethyl]-3,4-dihydroquinazoline-4-carboxamide] |
| < 100 | Cc1cc(Cl)cc(N2C=Nc3cc(C)c(-c4cc(O)ccc4C#N)cc3C2C(=O)N(C)C[C@@H]2CCCN2)c1 (stereo partly drawn) [Compound 1-21, 3-(3-chloro-5-methylphenyl)-6-(2-cyano-5-hydroxyphenyl)-N,7-dimethyl-N-[(2S)-pyrrolidin-2-ylmethyl]-3,4-dihydroquinazoline-4-carboxamide] |
| < 100 | COc1cc(F)cc(N2C=Nc3cc(C)c(-c4cc(O)ccc4F)cc3C2C(=O)N(C)C[C@@H]2CCCN2)c1 (stereo partly drawn) [Compound 1-22, 6-(2-fluoro-5-hydroxyphenyl)-3-(3-fluoro-5-methoxyphenyl)-N,7-dimethyl-N-[(2S)-pyrrolidin-2-ylmethyl]-3,4-dihydroquinazoline-4-carboxamide] |
| < 100 | Cc1cc(Cl)cc(N2C=Nc3cc(C)c(-c4cc(O)ccc4Cl)cc3C2C(=O)N(C)C[C@@H]2CCCCN2)c1 (stereo partly drawn) [Compound 1-23, 6-(2-chloro-5-hydroxyphenyl)-3-(3-chloro-5-methylphenyl)-N,7-dimethyl-N-[(2S)-piperidin-2-ylmethyl]-3,4-dihydroquinazoline-4-carboxamide] |
| < 100 | Cc1cc(Cl)cc(N2C=Nc3cc(C)c(-c4cccc(C(N)=O)c4)cc3C2C(=O)N(C)C[C@@H]2CCCCN2)c1 (stereo partly drawn) [Compound 1-24, 6-(3-carbamoylphenyl)-3-(3-chloro-5-methylphenyl)-N,7-dimethyl-N-[(2S)-piperidin-2-ylmethyl]-3,4-dihydroquinazoline-4-carboxamide] |
